Literature values, collected in patent US11147268B2, “Food contact surface sanitizing liquid” (THE CLOROX COMPANY, priority 2015, dated 2021).

SMILES | Vapor Pressure mmHg @ 20° C. [mmHg] | Vapor Pressure mmHg (@25° C.)
CC(O)CO (centres unmarked) [1,2, propylene glycol] | 0.07 | –
OCCCO [1,3 propanediol] | 0.8 | –
CC(CO)CO [2-methyl 1,3 propanediol] | – | 0.021 (@25° C.) mmHg
CCO [Ethanol] | 43 | –
CC(C)O [Isopropyl alcohol] | 33 | –
